Measurements: PubChem BioAssay (NCI)
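48-hour exposure; five concentrations; linearly interpolated endpoints. GI50 = concentration required for 50% inhibition of growth. At the TGI there is no net growth.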

Columns and labels:
Test in all cases: NCI anticancer screen, dose series, 48 h
SK-OV-3 ovarian = test system: SK-OV-3 ovarian
786-0 renal = test system: 786-0 renal
HS 578T breast = test system: HS 578T breast
CAKI-1 renal = test system: CAKI-1 renal
A498 renal = test system: A498 renal
BT-549 breast = test system: BT-549 breast
NCI/ADR-RES ovarian = test system: NCI/ADR-RES ovarian
OVCAR-5 ovarian = test system: OVCAR-5 ovarian
SNB-75 CNS = test system: SNB-75 CNS
MDA-MB-435 = test system: MDA-MB-435
K-562 leukemia = test system: K-562 leukemia
HCT-116 colon = test system: HCT-116 colon
TK-10 renal = test system: TK-10 renal
DU-145 prostate = test system: DU-145 prostate
HOP-62 NSCLC = test system: HOP-62 NSCLC
MDA-MB-231 breast = test system: MDA-MB-231 breast
HCT-15 colon = test system: HCT-15 colon
OVCAR-4 ovarian = test system: OVCAR-4 ovarian
T-47D breast = test system: T-47D breast
SNB-19 CNS = test system: SNB-19 CNS
HCC-2998 colon = test system: HCC-2998 colon
OVCAR-8 ovarian = test system: OVCAR-8 ovarian
NCI-H226 lung = test system: NCI-H226 lung
HOP-92 NSCLC = test system: HOP-92 NSCLC
U251 CNS = test system: U251 CNS
IGROV1 ovarian = test system: IGROV1 ovarian
UACC-62 melanoma = test system: UACC-62 melanoma
SF-295 CNS = test system: SF-295 CNS
NCI-H522 lung = test system: NCI-H522 lung
SR leukemia = test system: SR leukemia
NCI-H460 lung = test system: NCI-H460 lung
RPMI-8226 leukemia = test system: RPMI-8226 leukemia
SF-539 CNS = test system: SF-539 CNS
RXF 393 renal = test system: RXF 393 renal
ACHN renal = test system: ACHN renal
UACC-257 melanoma = test system: UACC-257 melanoma
KM12 colon = test system: KM12 colon
M14 melanoma = test system: M14 melanoma
UO-31 renal = test system: UO-31 renal
MCF7 breast = test system: MCF7 breast
HL-60(TB) leukemia = test system: HL-60(TB) leukemia
SW-620 colon = test system: SW-620 colon
NCI-H23 lung = test system: NCI-H23 lung
SF-268 CNS = test system: SF-268 CNS
SN12C renal = test system: SN12C renal
MALME-3M melanoma = test system: MALME-3M melanoma
LOX IMVI melanoma = test system: LOX IMVI melanoma
SK-MEL-28 melanoma = test system: SK-MEL-28 melanoma
SK-MEL-2 melanoma = test system: SK-MEL-2 melanoma
PC-3 prostate = test system: PC-3 prostate
SK-MEL-5 melanoma = test system: SK-MEL-5 melanoma
OVCAR-3 ovarian = test system: OVCAR-3 ovarian
HT29 colon = test system: HT29 colon
CCRF-CEM leukemia = test system: CCRF-CEM leukemia
A549 NSCLC = test system: A549 NSCLC
EKVX NSCLC = test system: EKVX NSCLC

**Q.** How did the GI50 (SK-OV-3 ovarian) turn out when `O=C(Nc1cccc(Cl)c1)Nc1cc2ncncc2cc1OCc1cccc(F)c1` was run?
**A.** 2.45 µM

**Q.** What about the TGI (SK-OV-3 ovarian) of the same compound?
**A.** 6.13 µM

**Q.** What about the GI50 (786-0 renal) of the same compound?
**A.** 3 µM

**Q.** What about the TGI (786-0 renal) of the same compound?
**A.** > 100 µM

**Q.** What about the GI50 (HS 578T breast) of the same compound?
**A.** 2.62 µM

**Q.** What about the TGI (HS 578T breast) of the same compound?
**A.** 7.02 µM

**Q.** And the GI50 (CAKI-1 renal)?
**A.** 3.03 µM

**Q.** What about the TGI (CAKI-1 renal) of the same compound?
**A.** > 100 µM

**Q.** And the GI50 (A498 renal)?
**A.** 1.75 µM

**Q.** What about the TGI (A498 renal) of the same compound?
**A.** 5.96 µM

**Q.** And the GI50 (BT-549 breast)?
**A.** 2.34 µM

**Q.** What about the TGI (BT-549 breast) of the same compound?
**A.** 7.41 µM

**Q.** And the GI50 (NCI/ADR-RES ovarian)?
**A.** 2.97 µM

**Q.** And the TGI (NCI/ADR-RES ovarian)?
**A.** 7.71 µM

**Q.** And the GI50 (OVCAR-5 ovarian)?
**A.** 2.72 µM

**Q.** What about the TGI (OVCAR-5 ovarian) of the same compound?
**A.** > 100 µM

**Q.** What about the GI50 (SNB-75 CNS) of the same compound?
**A.** 1.81 µM

**Q.** What about the TGI (SNB-75 CNS) of the same compound?
**A.** 3.98 µM

**Q.** What about the GI50 (MDA-MB-435) of the same compound?
**A.** 1.48 µM

**Q.** What about the TGI (MDA-MB-435) of the same compound?
**A.** 4.34 µM

**Q.** What about the GI50 (K-562 leukemia) of the same compound?
**A.** 2.52 µM

**Q.** What about the TGI (K-562 leukemia) of the same compound?
**A.** > 100 µM

**Q.** What about the GI50 (HCT-116 colon) of the same compound?
**A.** 2.61 µM

**Q.** What about the TGI (HCT-116 colon) of the same compound?
**A.** > 100 µM

**Q.** And the GI50 (TK-10 renal)?
**A.** 2.63 µM

**Q.** What about the TGI (TK-10 renal) of the same compound?
**A.** 7.98 µM

**Q.** What about the GI50 (DU-145 prostate) of the same compound?
**A.** 3.38 µM

**Q.** What about the TGI (DU-145 prostate) of the same compound?
**A.** > 100 µM

**Q.** And the GI50 (HOP-62 NSCLC)?
**A.** 2.1 µM

**Q.** And the TGI (HOP-62 NSCLC)?
**A.** 5.6 µM

**Q.** What about the GI50 (MDA-MB-231 breast) of the same compound?
**A.** 2.54 µM

**Q.** What about the TGI (MDA-MB-231 breast) of the same compound?
**A.** 7.8 µM

**Q.** What about the GI50 (HCT-15 colon) of the same compound?
**A.** 2.72 µM

**Q.** What about the TGI (HCT-15 colon) of the same compound?
**A.** > 100 µM

**Q.** What about the GI50 (OVCAR-4 ovarian) of the same compound?
**A.** 2.56 µM

**Q.** And the TGI (OVCAR-4 ovarian)?
**A.** 7.35 µM

**Q.** And the GI50 (T-47D breast)?
**A.** 1.75 µM

**Q.** What about the TGI (T-47D breast) of the same compound?
**A.** 4.37 µM

**Q.** And the GI50 (SNB-19 CNS)?
**A.** 2.91 µM

**Q.** And the TGI (SNB-19 CNS)?
**A.** 74.2 µM

**Q.** And the GI50 (HCC-2998 colon)?
**A.** 3.9 µM

**Q.** What about the TGI (HCC-2998 colon) of the same compound?
**A.** > 100 µM

**Q.** What about the GI50 (OVCAR-8 ovarian) of the same compound?
**A.** 2.76 µM

**Q.** And the TGI (OVCAR-8 ovarian)?
**A.** 7.98 µM

**Q.** And the GI50 (NCI-H226 lung)?
**A.** 2.91 µM

**Q.** And the TGI (NCI-H226 lung)?
**A.** 9.19 µM

**Q.** And the GI50 (HOP-92 NSCLC)?
**A.** 1.88 µM

**Q.** What about the TGI (HOP-92 NSCLC) of the same compound?
**A.** 6.88 µM

**Q.** And the GI50 (U251 CNS)?
**A.** 3.28 µM

**Q.** What about the TGI (U251 CNS) of the same compound?
**A.** > 100 µM

**Q.** Which TGI (SK-OV-3 ovarian) does the source give for `CCOc1ccc(NC(=O)/C(=N\N)C(C(=O)OC)c2nc3ccc(Cl)cc3[nH]c2=O)cc1` (stereo not drawn) here?
**A.** > 100 µM

**Q.** And the TGI (786-0 renal)?
**A.** > 100 µM

**Q.** And the TGI (IGROV1 ovarian)?
**A.** > 100 µM

**Q.** And the TGI (UACC-62 melanoma)?
**A.** > 100 µM

**Q.** What about the TGI (SF-295 CNS) of the same compound?
**A.** > 100 µM

**Q.** What about the TGI (HS 578T breast) of the same compound?
**A.** > 100 µM

**Q.** What about the TGI (NCI-H522 lung) of the same compound?
**A.** > 100 µM

**Q.** What about the TGI (SR leukemia) of the same compound?
**A.** > 100 µM

**Q.** And the TGI (NCI-H460 lung)?
**A.** > 100 µM

**Q.** And the TGI (CAKI-1 renal)?
**A.** > 100 µM

**Q.** And the TGI (RPMI-8226 leukemia)?
**A.** > 100 µM

**Q.** What about the TGI (SF-539 CNS) of the same compound?
**A.** > 100 µM

**Q.** And the TGI (A498 renal)?
**A.** > 100 µM

**Q.** And the TGI (RXF 393 renal)?
**A.** > 100 µM

**Q.** What about the TGI (BT-549 breast) of the same compound?
**A.** > 100 µM

**Q.** What about the TGI (ACHN renal) of the same compound?
**A.** > 100 µM

**Q.** And the TGI (NCI/ADR-RES ovarian)?
**A.** > 100 µM

**Q.** What about the TGI (UACC-257 melanoma) of the same compound?
**A.** > 100 µM

**Q.** What about the TGI (KM12 colon) of the same compound?
**A.** > 100 µM

**Q.** And the TGI (M14 melanoma)?
**A.** > 100 µM

**Q.** What about the TGI (UO-31 renal) of the same compound?
**A.** > 100 µM

**Q.** And the TGI (MCF7 breast)?
**A.** > 100 µM

**Q.** What about the TGI (HL-60(TB) leukemia) of the same compound?
**A.** > 100 µM

**Q.** And the TGI (OVCAR-5 ovarian)?
**A.** > 100 µM

**Q.** And the TGI (SW-620 colon)?
**A.** > 100 µM

**Q.** What about the TGI (SNB-75 CNS) of the same compound?
**A.** > 100 µM

**Q.** And the TGI (NCI-H23 lung)?
**A.** > 100 µM

**Q.** And the TGI (SF-268 CNS)?
**A.** > 100 µM

**Q.** What about the TGI (MDA-MB-435) of the same compound?
**A.** > 100 µM

**Q.** And the TGI (SN12C renal)?
**A.** > 100 µM

**Q.** And the TGI (HCT-116 colon)?
**A.** > 100 µM

**Q.** What about the TGI (TK-10 renal) of the same compound?
**A.** > 100 µM

**Q.** And the TGI (MALME-3M melanoma)?
**A.** > 100 µM

**Q.** What about the TGI (HOP-62 NSCLC) of the same compound?
**A.** > 100 µM

**Q.** What about the TGI (LOX IMVI melanoma) of the same compound?
**A.** > 100 µM

**Q.** And the TGI (SK-MEL-28 melanoma)?
**A.** > 100 µM

**Q.** And the TGI (SK-MEL-2 melanoma)?
**A.** > 100 µM

**Q.** What about the TGI (MDA-MB-231 breast) of the same compound?
**A.** > 100 µM

**Q.** And the TGI (HCT-15 colon)?
**A.** > 100 µM

**Q.** What about the TGI (OVCAR-4 ovarian) of the same compound?
**A.** > 100 µM

**Q.** And the TGI (T-47D breast)?
**A.** > 100 µM

**Q.** And the TGI (HCC-2998 colon)?
**A.** > 100 µM

**Q.** What about the TGI (PC-3 prostate) of the same compound?
**A.** > 100 µM

**Q.** And the TGI (OVCAR-8 ovarian)?
**A.** > 100 µM

**Q.** What about the TGI (SK-MEL-5 melanoma) of the same compound?
**A.** > 100 µM

**Q.** And the TGI (OVCAR-3 ovarian)?
**A.** > 100 µM

**Q.** And the TGI (NCI-H226 lung)?
**A.** > 100 µM

**Q.** What about the TGI (HT29 colon) of the same compound?
**A.** > 100 µM

**Q.** And the TGI (CCRF-CEM leukemia)?
**A.** > 100 µM

**Q.** And the TGI (HOP-92 NSCLC)?
**A.** > 100 µM

**Q.** And the TGI (U251 CNS)?
**A.** > 100 µM

**Q.** And the TGI (A549 NSCLC)?
**A.** > 100 µM

**Q.** What about the TGI (EKVX NSCLC) of the same compound?
**A.** > 100 µM
